Experimental data reported in US20240261417A1, “SOS1 DEGRADING AGENT AND PREPARATION METHOD THEREFOR AND APPLICATION THEREOF” (SHANGHAI LEADINGTAC PHARMACEUTICAL CO. LTD., priority 2021, published 2024).

Target: T1, SOS1 protein (Homo sapiens, UniProt Q07889)
T1 sequence (Q07889 1-1333): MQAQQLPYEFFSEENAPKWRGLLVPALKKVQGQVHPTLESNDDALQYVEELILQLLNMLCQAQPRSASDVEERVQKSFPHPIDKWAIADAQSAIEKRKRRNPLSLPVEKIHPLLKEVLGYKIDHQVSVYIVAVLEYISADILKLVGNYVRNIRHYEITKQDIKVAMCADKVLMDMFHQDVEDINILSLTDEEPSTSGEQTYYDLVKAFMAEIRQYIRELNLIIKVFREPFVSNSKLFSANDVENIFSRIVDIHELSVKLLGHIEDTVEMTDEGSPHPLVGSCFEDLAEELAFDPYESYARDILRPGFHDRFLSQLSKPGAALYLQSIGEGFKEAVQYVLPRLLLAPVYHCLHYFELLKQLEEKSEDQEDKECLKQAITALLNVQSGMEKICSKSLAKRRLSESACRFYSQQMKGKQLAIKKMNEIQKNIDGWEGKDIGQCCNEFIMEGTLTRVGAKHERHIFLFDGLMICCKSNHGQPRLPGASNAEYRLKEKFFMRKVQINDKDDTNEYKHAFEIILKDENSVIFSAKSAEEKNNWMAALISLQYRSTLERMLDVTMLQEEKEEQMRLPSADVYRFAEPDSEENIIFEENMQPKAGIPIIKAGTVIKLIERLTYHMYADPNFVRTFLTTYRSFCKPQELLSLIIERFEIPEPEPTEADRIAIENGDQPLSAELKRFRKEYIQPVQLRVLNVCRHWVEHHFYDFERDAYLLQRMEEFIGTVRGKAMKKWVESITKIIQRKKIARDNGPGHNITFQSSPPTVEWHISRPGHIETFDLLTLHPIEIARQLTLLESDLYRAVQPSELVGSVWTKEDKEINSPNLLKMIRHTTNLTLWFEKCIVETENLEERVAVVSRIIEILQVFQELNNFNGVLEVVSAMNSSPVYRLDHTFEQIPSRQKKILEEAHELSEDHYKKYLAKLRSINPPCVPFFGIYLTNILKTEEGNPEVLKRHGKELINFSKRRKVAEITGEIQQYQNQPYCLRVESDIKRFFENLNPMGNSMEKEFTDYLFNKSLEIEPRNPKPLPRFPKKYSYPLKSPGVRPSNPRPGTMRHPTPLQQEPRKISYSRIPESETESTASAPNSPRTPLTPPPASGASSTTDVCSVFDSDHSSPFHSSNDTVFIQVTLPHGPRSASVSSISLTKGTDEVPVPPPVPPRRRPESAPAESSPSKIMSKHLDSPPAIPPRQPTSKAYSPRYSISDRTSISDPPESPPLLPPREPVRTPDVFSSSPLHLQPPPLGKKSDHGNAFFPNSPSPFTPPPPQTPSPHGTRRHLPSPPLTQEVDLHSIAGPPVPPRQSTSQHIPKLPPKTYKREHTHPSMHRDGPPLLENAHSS
Test: SOS1 degradation assay (Western blot), DLD-1 cells
Format: cell-based
Parameters: host or cells: DLD-1 (human cancer cell lines)
Conditions: 24 h; for DC50: read-out: DLD-1 (G13D) DC50; for Dmax: read-out: DLD-1 (G13D) Dmax
Protocol: The specific procedures were as follows:
0.95 mL of cells were seeded into each well of a 24-well cell culture plate to achieve a cell density of 5×10^5 cells/well; the cell plate was incubated in an incubator at 37° C. with 5% CO2 overnight. Then 50 μL of the compound solution after dilution was added to each of the wells with the corresponding cells, so that the final concentration of the compound was in a range of 0.03-3000 nM. […] After dosing, the cell plate was incubated in an incubator at 37° C. with 5% CO2 for 24 h. […] After the plate was left to stand on ice for 30 min, the protein lysate in each well was transferred to a 1.5 mL centrifuge tube and centrifuged at 15000 g for 20 min at 4° C. The cell lysate supernatant after centrifugation was cryopreserved at −80° C. for testing and was used for determining the degradation level of the SOS1 protein by a WB method. The concentration of total protein in the cell lysate supernatant was determined using the BCA Protein Quantification Kit (Tiangen, PA115-02).
The concentration of total protein in the cell lysate was determined by BCA. The total protein was adjusted to 0.5 μg/μL with PBS and 5× SDS-PAGE protein loading buffer (Beyotime, P0015L), incubated in a water bath at 100° C. for 15 min, incubated in an ice bath on ice for 5 min, centrifuged at 14000 g for 1 min at 4° C., and mixed well as a loading sample for WB. Protein electrophoresis was performed on a precast gel (KeyGEN, KGMGO10W15) with a loading volume of 10 μL (total protein: 5 μg) using a Tris-MOPS-SDS running solution (Adamas, P1598253) at a constant voltage of 120 V for 55 min. After the electrophoresis, the protein on the gel strip was transferred to a PVDF membrane at a constant current of 250 mA for 65 min. After the membrane transfer, the membrane was incubated in 1× QuickBlock blocking buffer (Beyotime, P0235) for 30 min at room temperature. […] The protein map was subjected to gray value analysis by the chemiluminescence imaging system from Clinx. […] Then the degradation rate was calculated by comparing the gray correction value with the gray correction value of the control group. Then nonlinear curve fitting was performed by GraphPad Prism 8 in the logarithmic concentration-inhibition rate to obtain the DC50 and Dmax values of the compounds.

Row | SMILES | DC50 [µM] | Dmax [%]
1 | CNCc1ccccc1-c1csc([C@@H](C)Nc2nc(C)nc3cc(OC)c([C@H]4CC[C@H](C(=O)N5CCN(CC6CCC7(CC6)CCN(C(=O)c6ccc(OC)c(N8CCC(=O)NC8=O)c6)CC7)CC5)CC4)cc23)c1 [Example 73, 1-(2-methoxy-5-(9-((4-((1R,4R)-4-(7-methoxy-2-methyl-4-(((R)-1-(4-(2-((methylamino)methyl)phenyl)thien-2-yl)ethyl)amino)quinazolin-6-yl)cyclohexane-1-carbonyl)piperazin-1-yl)methyl)-3-azaspiro[5.5]undecane-3-carbonyl)phenyl)dihydropyrimidine-2,4(1H,3H)-dione] | 0.05 to 0.1 | 80 to 100
2 | COc1cc2nc(C)nc(N[C@H](C)c3cc(N)cc(C(F)(F)F)c3)c2cc1[C@H]1CC[C@H](C(=O)N2CCN(CC3CCC4(CC3)CCN(C(=O)c3ccc(Cl)c(N5CCC(=O)NC5=O)c3)CC4)CC2)CC1 [Example 2, 1-(5-(9-((4-((1R,4R)-4-(4-(((R)-1-(3-amino-5-(trifluoromethyl)phenyl)ethyl)amino)-7-methoxy-2-methylquinazolin-6-yl)cyclohexane-1-carbonyl)piperazin-1-yl)methyl)-3-azaspiro[5.5]undecane-3-carbonyl)-2-chlorophenyl)dihydropyrimidine-2,4(1H,3H)-dione] | < 0.05 | 80 to 100
3 | COc1cc2nc(C)nc(N[C@H](C)c3cc(N)cc(C(F)(F)F)c3)c2cc1[C@H]1CC[C@H](C(=O)N2CCC(CCOCC3CCN(C(=O)c4ccc(Cl)c(N5CCC(=O)NC5=O)c4)CC3)CC2)CC1 [Example 19, 1-(5-(4-((2-(1-((1R,4R)-4-(4-(((R)-1-(3-amino-5-(trifluoromethyl)phenyl)ethyl)amino)-7-methoxy-2-methylquinazolin-6-yl)cyclohexane-1-carbonyl)piperidin-4-yl)ethoxy)methyl)piperidine-1-carbonyl)-2-chlorophenyl)dihydropyrimidine-2,4(1H,3H)-dione] | 0.05 to 0.1 | 80 to 100
4 | COc1cc2nc(C)nc(N[C@H](C)c3cc(N)cc(C(F)(F)F)c3)c2cc1[C@H]1CC[C@H](C(=O)N2CCN(CCC3CCC4(CC3)CCN(C(=O)c3ccc(Cl)c(N5CCC(=O)NC5=O)c3)CC4)CC2)CC1 [Example 1, 1-(5-(9-(2-(4-((1R,4R)-4-(4-(((R)-1-(3-amino-5-(trifluoromethyl)phenyl)ethyl)amino)-7-methoxy-2-methylquinazolin-6-yl)cyclohexane-1-carbonyl)piperazin-1-yl)ethyl)-3-azaspiro[5.5]undecane-3-carbonyl)-2-chlorophenyl)dihydropyrimidine-2,4(1H,3H)-dione] | < 0.05 | 80 to 100
5 | COc1cc2nc(C)nc(N[C@H](C)c3cccc4c3CCS4(=O)=O)c2cc1[C@H]1CC[C@H](C(=O)N2CCN(CC3CCC4(CC3)CCN(C(=O)c3ccc(Cl)c(N5CCC(=O)NC5=O)c3)CC4)CC2)CC1 [Example 10, 1-(2-chloro-5-(9-((4-((1R,4R)-4-(4-(((R)-1-(1,1-dioxo-2,3-dihydrobenzo[b]thiophen-4-yl)ethyl)amino)-7-methoxy-2-methylquinazolin-6-yl)cyclohexane-1-carbonyl)piperazin-1-yl)methyl)-3-azaspiro[5.5]undecane-3-carbonyl)phenyl)dihydropyrimidine-2,4(1H,3H)-dione] | < 0.05 | 80 to 100
6 | COc1cc2nc(C)nc(N[C@H](C)c3cc(N)cc(C(F)(F)F)c3)c2cc1[C@H]1CC[C@H](C(=O)N2CCN(CCOCC3CCN(C(=O)c4ccc(Cl)c(N5CCC(=O)NC5=O)c4)CC3)CC2)CC1 [Example 33, 1-(5-(4-((2-(4-((1R,4R)-4-(4-(((R)-1-(3-amino-5-(trifluoromethyl)phenyl)ethyl)amino)-7-methoxy-2-methylquinazolin-6-yl)cyclohexane-1-carbonyl)piperazin-1-yl)ethoxy)methyl)piperidine-1-carbonyl)-2-chlorophenyl)dihydropyrimidine-2,4(1H,3H)-dione] | 0.1 to 0.5 | 80 to 100
